How the values were obtained:
human cancer cell lines = experiment: e-Drug analysis: CCLE drug activity (activity area) in cell lines with missense mutations in a protein functional region (PFR) or whole protein versus cell lines without; type: cell-based
Source text: The CCLE (Cancer Cell Line Encyclopedia; website broadinstitute.org/ccle; Barretina et al., Nature 483:603-607 (2012)) dataset, which includes the mutation profiles of 1,668 genes in 906 human cancer cell lines and drug activity data for 24 different anticancer compounds, was used in the present study. The analysis was focused on missense mutations, as truncating mutations can sometimes be misleading when performing the analysis in terms of functional regions. For example, when analyzing a protein that contains two different domains, if a truncating mutation happens in the first domain, it is not obvious whether the functional consequences of the mutation are caused by the fact that the first domain is altered or that the second domain is missing. […] From the original 42,603 genomic-point mutations in 1,668 genes, 156,817 protein missense mutations were obtained in 9,311 proteins.
CCLE contains data on the drug activity of 24 different compounds in 479 cell lines from 8-point dose-response curves. […] In our analysis only the activity area was used because, according to the CCLE, it captures simultaneously both variables of drug activity: its efficacy and its potency.
For the present study, protein functional regions were defined as domains or intrinsically disordered regions. […] To identify protein domains, annotated Pfam domains were retrieved from ENSEMBL for each protein isoform. A set of 1,300 potential domains identified by AIDA (ab initio domain assembly; Xu et al., Nucleic Acids Research 12:W308-W313 (2014) (Web Server issue); Internet site ffas.burnham.org/AIDA/), an algorithm based on remote homology, were also included. Foldindex (Prilusky et al., Bioinformatics 21(16):3435-8 (2005)) was used to predict intrinsically disordered regions for each protein. Those regions with a predicted unfolded score below −0.1 were included in the present study.
The different mutations of each cell line were mapped to these protein features, giving a total of 30,798 altered regions in 906 cell lines. These regions are divided into 19,918 Pfam domains and 10,880 intrinsically disordered regions. Note that the features can overlap, as the predictions were performed independently and there is no reason why, for example, an intrinsically unfolded region cannot overlap with (or even be located within) a Pfam domain. Note also that these numbers refer to PFRs in all known protein isoforms according to ENSEMBL v72.
The e-Drug analysis protocol looks for PFRs that, when mutated, correlate with drug activity of the different drugs. […] A Wilcoxon test was then performed comparing the drug activity of each compound in the two groups and kept those with a p-value below 0.01. Finally, for those gene regions associated to a certain drug, the activity of the cell lines mutated in the region of interest was compared to the activity of cell lines mutated in other regions of the gene. […] In this case, since the number of cell lines in both groups is lower and fewer tests were performed, a significance threshold of 0.05 instead of 0.01 was established. True positives were considered those PFR that passed both thresholds and that are not in proteins that show an association (p<0.01) with the same drug at the whole-protein level. Note that the analysis is performed independently for each PFR.
To overcome these limitations and decrease the number of false positives among the associations three different thresholds were required for an association to be considered positive (see

[1] = TCGA survival analysis of patients treated with CCLE drugs, grouped by mutations in resistance-associated PFRs; type: in vivo, human; conditions: for outcome of treated patients with mutations in PFRs associated with resistance vs mutations in other regions of the same proteins or no mutations: TCGA patients treated with Topoisomerase inhibitors Irinotecan and Topotecan (n=188), pooled, p<0.01; for prediction of patient outcome by mutation status of the whole proteins that contain the associated PFRs: TCGA patients treated with Topoisomerase inhibitors, whole-protein level
Source text: Both clinical and mutation data for the 3,205 tumors described in the pan-cancer analysis of the TCGA were downloaded. Data from patients that had not been treated with any of the drugs included in the CCLE was then filtered out. Since most drugs included in the CCLE are still in under clinical research, there were only enough patients to analyze 2 different drugs: paclitaxel (n=778) and irinotecan (n=58). Each of these subsets of patients have then been classified in 3 groups: those that have a mutation in a PFR that, according to the analysis, increases resistance to the drug used to treat them; those with mutations in other regions of the same genes; and those with no mutations in these genes.
As a result very few patients in the TCGA dataset carry mutations in the former type of regions and were treated with the matching drug. The survival analysis was performed using the “Survival” package for R.

C[C@@H](Oc1cc(-c2cnn(C3CCNCC3)c2)cnc1N)c1c(Cl)ccc(F)c1Cl [PF2341066]
sensitivity of cell lines with mutations in the ERBB3 receptor domain (human cancer cell lines; PFR level analysis, N-terminal EGF receptor domain of ERBB3): resistant | behavior of cell lines with mutations in any other PFR of ERBB3 (human cancer cell lines; PFR level analysis, other PFRs of ERBB3 such as the kinase domain): do not show any specific behavior | activity of the drug in cell lines with mutations in ERBB3 (human cancer cell lines; protein level analysis, ERBB3 whole protein): do not show any bias

CCc1c2c(nc3ccc(OC(=O)N4CCC(N5CCCCC5)CC4)cc13)-c1cc3c(c(=O)n1C2)COC(=O)[C@]3(O)CC [Irinotecan]
outcome of treated patients with mutations in PFRs associated with resistance vs mutations in other regions of the same proteins or no mutations [1]: worse outcomes | prediction of patient outcome by mutation status of the whole proteins that contain the associated PFRs ([1]; p>0.9): cannot predict the outcome

CC[C@@]1(O)C(=O)OCc2c1cc1n(c2=O)Cc2cc3c(CN(C)C)c(O)ccc3nc2-1 [Topotecan]
outcome of treated patients with mutations in PFRs associated with resistance vs mutations in other regions of the same proteins or no mutations [1]: worse outcomes | prediction of patient outcome by mutation status of the whole proteins that contain the associated PFRs ([1]; p>0.9): cannot predict the outcome

C#Cc1cccc(Nc2ncnc3cc(OCCOC)c(OCCOC)cc23)c1 [Erlotinib]
association of MSH6 mutations with the drug at protein level (human cancer cell lines; protein level analysis, MSH6 whole protein): potential association

CC(=O)O[C@H]1C(=O)[C@@]2(C)[C@H]([C@H](OC(=O)c3ccccc3)[C@]3(O)C[C@H](OC(=O)[C@H](O)[C@@H](NC(=O)c4ccccc4)c4ccccc4)C(C)=C1C3(C)C)[C@]1(OC(C)=O)CO[C@@H]1C[C@@H]2O [Paclitaxel]
outcome of treated patients with mutations in PFRs associated with increased resistance ([1]; TCGA patients treated with paclitaxel (n=778), p>0.9): no differences

CS(=O)(=O)CCNCc1ccc(-c2ccc3ncnc(Nc4ccc(OCc5cccc(F)c5)c(Cl)c4)c3c2)o1 [Lapatinib]
drug activity associated with mutations in the connector domain (Pf05188) of MSH6 (human cancer cell lines; PFR level, missense mutations, MSH6 Pf05188): higher

Cn1c(Nc2ccc(C(F)(F)F)cc2)nc2cc(Oc3ccnc(-c4ncc(C(F)(F)F)[nH]4)c3)ccc21 [RAF265]
drug activity associated with mutations in the ATPase domain (Pf00488) of MSH6 (human cancer cell lines; PFR level, missense mutations, MSH6 Pf00488): higher

Source: patent US20160232293A1, “DRUG SENSITIVITY BIOMARKERS AND METHODS OF IDENTIFYING AND USING DRUG SENSITIVITY BIOMARKERS” (SANFORD-BURNHAM MEDICAL RESEARCH INSTITUTE, priority 2013, published 2016)
